Experimental data taken from patent US6262095A, “Use of tricyclic derivatives of 1,4-dihydro-1,4-dioxo-1H-naphthalene, novel compounds obtained and their application in theraphy” (Laboratoire Innothera, priority 1995, dated 2001).

What was measured:
mice = assay: Single oral administration toxicity in mice; type: in vivo, mouse
Excerpt: (§1) Moreover, the compounds of the invention and their possible salts have a very low toxicity.

[1] = test system: saphenous vein in rabbits; assay: Contractile effect on the rabbit saphenous vein precontracted by a depolarizing physiological solution (K+ 40 mM); type: cell-based; conditions: Oryctolagus cuniculus, precontracted with 40 mM potassium; for Emax: % of maximum contraction induced by hyperpotassic solutions; for EC50: read-out: ED50 (the source's name)
Protocol: The contractile effects are measured in vitro under static conditions on vascular capacitance or resistance rings of saphenous, femoral, jugular, mesenteric, and caval veins . . . and on femoral, carotid, basilar, or mesenteric arteries, as well as the thoracic or abdominal aorta . . . in rats (Wistar, 200-250 g), rabbits (New Zealand, 2-2.5 kg), guinea pigs (Dunkin Hartley 250-300 g).
The rings are placed in a chamber for isolated organs (25 mL for capacitance vessels and 2.5 mL for resistance vessels according to Mulvany), and maintained under isometric conditions using two rigid threads inserted inside the vessel, avoiding causing damage to the endothelium. The vessels are bathed in a modified Krebs solution (in mM: NaCl=118; KCl=4.6; CaCl2 =2.5; MgSO4 =1.2; KH2 PO4 =1.17; NaHCO3 =25; glucose=11), continuously aerated using a gaseous mixture of 95% O2 and 5% Co2, at a pH=7.4, and regulated by thermostat at 37° C. The rings are adjusted to their optimal point as far as the tension-length relationship is concerned. The tensions developed generate an electrical signal through the intermediary of a force sensor (Wheatstone bridge). […] The pharmacological studies are carried out after a few standardized preliminary contractile stimulations using a depolarizing solution (hyperpotassic type obtained by replacing NaCl with KCl in equimolar quantities), along with rinsings and periods of equilibration in a pure physiological solution. The presence of endothelium is verified by the relaxation induced by increasing the concentration of acetylcholine after the stabilization of a vascular precontraction.
The forces of contraction developed by the vascular rings in response to the different compounds are studied on quiescent or electrically stimulated vessels (5-8 Hz), by a "physiological" depolarizing hyperpotassic solution (KCl: 20, 40 mM), by noradrenaline (increasing concentrations), [and by] serotonin (increasing concentrations).
The contractions are expressed in mg force or as a percentage of the maximum contraction at the time of the depolarization with a "physiological" hyperpotassic solution.
The contractile effect of different compounds on the saphenous vein in rabbits, precontracted by a depolarizing "physiological" solution with a potassium concentration of 40 mM, is given as an illustration; the maximum effect produced by each compound is expressed as a percentage of the maximum contraction induced by depolarizing hyperpotassic solutions and as value of ED50): […]

[2] = test system: hyperpermeability induced by zymosan in rats; assay: Inflammatory hyperpermeability induced by zymosan in rats; type: in vivo, rat (Wistar); conditions: rat, oral
Protocol: The vascular permeability is studied in vivo by measuring the extravasation of albumin, the quantity of which is determined using an albumin-binding dye (Evans blue).
The hyperpermeability is induced by the intradermal injection of a solution of histamine, bradykinin, or zymosan.
The abdominal walls of the rats (Wistar, 200-230 g) are shorn 1 h before the start of the experiment. The product to be tested is injected by the intraperitoneal route or orally 1-4 h before the sacrifice. The rats are anesthetized with a halothane mixture. They then receive an intradermal injection in their abdomen of 0.10 or 0.15 mL (or for histamine 6.7 or […]) of inflammatory agent and an intravenous injection of 1 mL of 0.5% Evans blue solution in the vein of the penis. These injections are carried out 30 min before the sacrificing.
30 min after these two injections, the rats are sacrificed by cervical dislocation.
At the site of the injection of the inflammatory agent, the skin is cut and placed into glass tubes with a ground[-glass] neck containing 3 mL of fuming hydrochloric acid. […] After allowing the preparation to stand for 30 min, 7 mL of dichloromethane are added. The tubes are periodically agitated for 1 h. The aqueous phase is eliminated by aspiration, and the organic "dichloromethane" phase is filtered. The optical densities are quantified by absorption spectrophotometry at a wavelength of 620 nm, against a blank [control] containing only dichloromethane. The averages of the optical densities of the different lots of treated or control animals are calculated, then a percentage of variation of the values corresponding to the treated [experimental] animals compared to those of the control animals is calculated.

[3] = test system: capillary resistance of rats; assay: Capillary resistance of rats after oral administration (petechial index); type: in vivo, rat (Wistar); conditions: rat
Protocol: The increase in the capillary resistance is evaluated by the modification of the petechial index (negative pressure inducing the extravasation of the erythrocytes), measured by a method derived from the angiosterrometer of Parrot.
The studies are carried out on male Wistar rats with an average weight of 200 g (approximate age six weeks). The bottom area of the back is shorn, then the hair is pulled by means of a paste based on a derivative of thioglycolic acid and calcium hydroxide. After approximately 30 min, the skin is abundantly rinsed and dried.
On the day of the study, the rats are maintained without constraint. A low pressure of 80 mm of mercury is applied. If the petechiae (extravasation of erythrocytes) have not appeared within 15 sec, the low pressure is increased as a countermeasure, keeping the suction cap at the same place.
The minimum low pressure where petechias appear, in mm of mercury, expresses the basal capillary resistance (before any treatment). Two measurements are made for each test at different sites on of the back.
The rats are treated by the oral route. […] All the measurements are done in the blind mode.
A percentage of variation in the capillary resistances of the animals treated compared to their basal capillary resistance is calculated for each compound studied, at each treatment time and compared with the control group (excipient only) or the reference group.

[4] = test system: fibroblastic cell lines of mice (L929); assay: Cytotoxicity on L929 fibroblastic cell lines (neutral red incorporation); type: cell-based, mouse; conditions: L929, up to concentrations equal to their solubility in an aqueous medium
Excerpt: as §1

[5] = single oral administration of 500 mg/kg
[6] = single oral administration, 1 g/kg

| SMILES | observed signs (mice; [5]) | toxic effect and mortality (mice; [5]) | Emax [1] | EC50 [1] | Zymosan-induced hyperpermeability, effect after 2 h ([2]; 0.1 mg/kg) | Zymosan-induced hyperpermeability, effect after 4 h ([2]; 0.1 mg/kg) | Increase of capillary resistance, effects after 4 h ([3]; 5 mg/kg) | Increase of capillary resistance, effect after 6 h ([3]; 5 mg/kg) | cytotoxicity (viability by neutral red incorporation) [4] | Zymosan-induced hyperpermeability, effect after 2 h ([2]; 5 mg/kg) | Zymosan-induced hyperpermeability, effect after 4 h ([2]; 5 mg/kg) | toxic effect and mortality (mice; [6]) | Increase of capillary resistance, effects after 4 h ([3]; 0.1 mg/kg) | Increase of capillary resistance, effect after 6 h ([3]; 0.1 mg/kg) | observed signs (mice; [6]) |
| --- | --- | --- | --- | --- | --- | --- | --- | --- | --- | --- | --- | --- | --- | --- | --- |
| O=C1c2ccccc2C(=O)c2oc(-c3ccccc3F)nc21 [Example 3, 4,9-Dihydro-4,9-dioxo-2-(2-fluorophenyl)-naphtho[2,3-d]oxazole] | slight diarrheas | no observable toxic effect and no mortality | 17 ± 6% | 36 nM | -22 % of the control | -26 % of the control | 27 % of the control | 18 % of the control | noncytotoxic |  |  |  |  |  |  |
| O=C1c2ccccc2C(=O)c2oc(-c3cccc(F)c3)nc21 [Example 4, 4,9-Dihydro-4,9-dioxo-2-(3-fluorophenyl)-naphtho[2,3-d]oxazole] |  |  | 29 ± 11% | 42 nM |  |  |  |  | noncytotoxic |  |  |  |  |  |  |
| O=C1c2ccccc2C(=O)c2sc(-c3cccs3)nc21 [Example 20, 4,9-Dihydro-4,9-dioxo-2-(2-thienyl)-naphtho[2,3-d]thiazole] |  |  | 24 ± 4% | 110 nM |  |  |  |  | noncytotoxic |  |  |  |  |  |  |
| O=C1c2ccccc2C(=O)c2sc(-c3ccsc3)nc21 [Example 21, 4,9-Dihydro-4,9-dioxo-2-(3-thienyl)-naphtho[2,3-d]thiazole] |  |  |  |  |  |  | 10 % of the control | 22 % of the control | noncytotoxic | -22 % of the control | -21 % of the control |  |  |  |  |
| O=C1c2ccccc2C(=O)c2oc(-c3ccccc3)nc21 [Example f, 4,9-Dihydro-4,9-dioxo-2-phenylnaphtho[2,3-d]oxazole] |  |  | 15 ± 1% | 21 nM | -15 % of the control | -22 % of the control |  |  | noncytotoxic |  |  | no observable toxic effect and no mortality | 7 % of the control | 17 % of the control |  |
| Cc1nc2c(s1)C(=O)c1ccccc1C2=O [Example h, 4,9-Dihydro-4,9-dioxo-2-methylnaphtho[2,3-d]thiazole] |  |  | 29 ± 6% | 86 nM |  |  |  |  |  |  |  | no observable toxic effect and no mortality | 19 % of the control | 19 % of the control | diarrheas |
| O=C1c2ccccc2C(=O)c2sc(-c3ccccc3)nc21 [Example j, 4,9-Dihydro-4,9-dioxo-2-phenylnaphtho[2,3-d]thiazole] |  | no observable toxic effect and no mortality | 16 ± 6% | 30 nM | -14 % of the control | -32 % of the control |  |  | noncytotoxic |  |  |  |  |  |  |
